Experimental data published in ChEMBL document CHEMBL3616393, “Recent progress on MAP kinase pathway inhibitors” (Bioorg Med Chem Lett, 2015).
pIC50: −log10 of the molar value.

Legend:
[1] = target: T1, Mitogen-activated protein kinase 3 (Homo sapiens, UniProt P27361); assay: Competitive inhibition of ERK1 (unknown origin) in presence of ATP
[2] = target: Serine/threonine-protein kinase B-raf (Homo sapiens) (UniProt P15056); assay: Binding affinity to B-RAF (unknown origin) assessed as dissociation half life
Chain of Serine/threonine-protein kinase B-raf (Homo sapiens) (P15056 whole entry): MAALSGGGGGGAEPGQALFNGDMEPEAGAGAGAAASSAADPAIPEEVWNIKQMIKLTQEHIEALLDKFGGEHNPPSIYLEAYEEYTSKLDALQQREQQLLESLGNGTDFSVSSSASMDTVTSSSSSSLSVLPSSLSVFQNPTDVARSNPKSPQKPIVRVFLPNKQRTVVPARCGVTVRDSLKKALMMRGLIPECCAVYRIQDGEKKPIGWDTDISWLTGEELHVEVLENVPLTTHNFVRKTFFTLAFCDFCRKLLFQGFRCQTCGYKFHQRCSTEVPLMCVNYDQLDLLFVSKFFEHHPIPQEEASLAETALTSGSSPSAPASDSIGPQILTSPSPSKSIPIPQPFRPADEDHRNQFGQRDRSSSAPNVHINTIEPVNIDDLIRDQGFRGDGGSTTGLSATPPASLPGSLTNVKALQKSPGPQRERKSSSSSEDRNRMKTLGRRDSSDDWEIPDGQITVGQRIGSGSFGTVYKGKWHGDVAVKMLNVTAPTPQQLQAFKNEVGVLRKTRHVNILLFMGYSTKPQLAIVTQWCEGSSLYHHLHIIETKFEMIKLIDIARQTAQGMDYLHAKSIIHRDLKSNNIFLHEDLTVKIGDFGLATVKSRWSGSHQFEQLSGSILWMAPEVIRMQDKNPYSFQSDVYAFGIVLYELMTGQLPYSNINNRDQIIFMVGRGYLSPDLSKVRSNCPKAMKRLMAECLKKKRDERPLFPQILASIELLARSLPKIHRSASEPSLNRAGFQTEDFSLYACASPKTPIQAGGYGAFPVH

Homo sapiens [3] = assay: Toxicity in patient administered daily; format: organism-based; conditions: in vivo
Homo sapiens [4] = assay: In vivo inhibition of B-RAF in naive patient relative to control; format: functional
Homo sapiens [5] = assay: In vivo inhibition of B-RAF in inhibitor-pretreated patient relative to control; format: functional
[6] = Effective half life in patient; format: ADME, organism-based; conditions: human, in vivo; read-out: t1/2eff
[7] = Plasma half life in po dosed Sprague-Dawley rat; format: ADME, organism-based
[8] = target: T1, Mitogen-activated protein kinase 3; assay: Inhibition of ERK1 (unknown origin) after 45 mins by IMAP assay

T1 sequence (P27361 whole entry): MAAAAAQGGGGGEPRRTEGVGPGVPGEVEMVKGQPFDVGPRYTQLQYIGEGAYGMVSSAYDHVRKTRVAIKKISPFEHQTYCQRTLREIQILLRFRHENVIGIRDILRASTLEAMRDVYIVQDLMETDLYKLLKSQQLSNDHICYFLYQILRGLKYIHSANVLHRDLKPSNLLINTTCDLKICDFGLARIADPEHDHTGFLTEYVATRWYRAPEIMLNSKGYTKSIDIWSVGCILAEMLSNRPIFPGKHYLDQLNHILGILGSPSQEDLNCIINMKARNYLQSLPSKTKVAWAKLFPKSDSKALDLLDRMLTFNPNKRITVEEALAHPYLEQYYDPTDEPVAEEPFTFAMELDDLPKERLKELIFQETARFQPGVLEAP

Question: With `CC(C)Nc1cc(-c2c[nH]c(C(=O)N[C@H](CO)c3cccc(Cl)c3)c2)c(Cl)cn1` as the compound, how does the INH [1] read?
Answer: 300 pM

Question: For `COC(=O)N[C@@H](C)CNc1nccc(-c2cn(C(C)C)nc2-c2cc(Cl)cc(NS(C)(=O)=O)c2F)n1` [ENCORAFENIB], which T1/2 [2] is on record?
Answer: > 24 h

Question: What about the MTD (Homo sapiens [3]) of the same compound?
Answer: 600 mg

Question: What about the “inhibition (INH)” value (Homo sapiens [4]) of the same compound?
Answer: 58%

Question: What about the “inhibition (INH)” value (Homo sapiens [5]) of the same compound?
Answer: 11%

Question: For `Cn1cnc2c(F)c(Nc3ccc(Br)cc3F)c(C(=O)NOCCO)cc21` [BINIMETINIB], which “inhibition (INH)” value (Homo sapiens [4]) is on record?
Answer: 88%

Question: And the “inhibition (INH)” value (Homo sapiens [5])?
Answer: 18%

Question: Which half-life [6] does the source give for `CC(=O)Nc1cccc(-n2c(=O)n(C3CC3)c(=O)c3c(Nc4ccc(I)cc4F)n(C)c(=O)c(C)c32)c1` [TRAMETINIB] here?
Answer: > 40 h

Question: What about the half-life [7] of the same compound?
Answer: > 30 h

Question: With `O=C(Nc1ccc2[nH]nc(-c3ccncc3)c2c1)[C@@H]1CCN(CC(=O)N2CCN(c3ccc(-c4ncccn4)cc3)CC2)C1` as the compound, how does the pIC50 [8] read?
Answer: 8.40
